Patent US7892581B2, “Compositions and methods for protection of harvested fruits from decay” (Gavish-Galilee Bio Applications Ltd., priority 2005, dated 2011)

Assay: Release profile of marker components into vapor phase (headspace GC)
Format: physicochemical
Details: for Time to saturation of the vapor phase: release from essential oil on filter paper, sealed vial, 20° C.; for Concentration in the vapor phase: Thyme oil, within 3 hours
Protocol: The profile of release of essential oils was determined by analyses using Gas Chromatograph HP6890 Series GC-System (FID) coupled with HP 7694 Headspace sampler, equipped with column HP-5 Trace Analysis (5% PH Me Siloxane) of volume 30 m×0.25 mm×0.25 μm, at ambient temperature. The following model system was developed and calibrated: filter paper (Whatman No. 1) strips absorbed with appropriate volume of essential oil to achieve desired concentrations, i.e., similar to those used for in-vivo experiments, were placed in 20 ml and 100 ml vials. The vials were hermetically sealed and marked to indicate the time course of vaporization (1, 3, 14 and 24 hours). These vials were kept in the dark at a temperature of 20° C. until their gas chromatography analyses.
GC FID analysis was applied to determine the release profile into the vapor phase of marker individual components during a 24 hour period. […] For all markers tested, saturation was achieved within 3 hours.

Structure (SMILES) | Time to saturation of the vapor phase [h] | Concentration in the vapor phase [%]
C=CCN=C=S [allyl isothiocyanate] | ~1.5 | 
Cc1ccc(C(C)C)c(O)c1 [thymol] |  | ~1.2
Cc1ccc(C(C)C)cc1 [p-cymene] |  | ~56
CC(C)=CCCC(C)CC=O (stereo not shown) [citronellal] | ~3.0 | 
